Laboratory results taken from patent US20240376126A1, “PRMT5 INHIBITOR AND THE USE THEREOF” (CYTOSINLAB THERAPEUTICS CO., LTD., priority 2022, published 2024).
Where two headings read alike, the source gives them in different places.

How the values were obtained:
HCT116 MTAP WT cells = assay: Proliferation inhibition of HCT116 cells in vitro (CellTiter Glo, 6 days); type: cell-based; details: read-out: Cell proliferation inhibition rate HCT116 MTAP WT IC50 (nm)
[1] = tested on: HCT116-MTAP-KO (MTAP null) cells; assay: Proliferation inhibition of HCT116 MTAP-KO cells in vitro (CellTiter Glo, 6 days); type: cell-based; details: read-out: Cell proliferation inhibition rate HCT116-MTAP null IC50 (nm)

SMILES | IC50 (HCT116 MTAP WT cells; Homo sapiens, HCT-116, 144 h) [µM] | IC50 ([1]; HCT116-MTAP null, 144 h) [µM] | IC50 (HCT116 MTAP WT cells) [µM] | IC50 [1] [µM] | IC50 ([1]; 144 h) [µM]
Cc1ncc2c(N)nc3cc(F)c(C(=O)N(Cc4nc5ccc(C(F)(F)F)cc5[nH]4)c4ccnn4C)cc3n12 [Example 142] |  |  | 1 to 10 | 0.1 to 1 | 
COCC(C1CC1)N(Cc1nc2ccccc2s1)C(=O)c1ccc2nc(N)c(C)cc2c1 (stereo not drawn) [Example 146] | 1 to 10 |  |  |  | 0.1 to 1
COC1CC(N(Cc2cn3ccccc3n2)C(=O)c2cc3c(cc2F)nc(N)c2cnc(C)n23)C1 (stereo not drawn) [Example 177] | 1 to 10 | 0.1 to 1 |  |  | 
CCN(Cc1cn2cc(C(F)(F)F)ccc2n1)C(=O)c1cc2c(cc1F)nc(N)c1cnc(C)n12 [Example 178] | 1 to 10 | 0.1 to 1 |  |  | 
Cc1ncc2c(N)nc3cc(F)c(C(=O)N(Cc4cn5ccccc5n4)C4CCC4)cc3n12 [Example 179] | 1 to 10 | < 0.1 |  |  | 
Cc1ncc2c(N)nc3cc(F)c(C(=O)N(Cc4cn5ccccc5n4)CC(F)(F)F)cc3n12 [Example 180] | 1 to 10 | 0.1 to 1 |  |  | 
Cc1ncc2c(N)nc3cc(F)c(C(=O)N(Cc4cn5ccccc5n4)c4cnn(C)c4)cc3n12 [Example 181] | 1 to 10 | 0.1 to 1 |  |  | 
Cc1ncc2c(N)nc3cc(F)c(C(=O)N(Cc4cn5cc(C(F)(F)F)ccc5n4)c4cnn(C)c4)cc3n12 [Example 183] | 1 to 10 | < 0.1 |  |  | 
CCN(Cc1cn2ccccc2n1)C(=O)c1cc2c(cc1F)nc(N)c1cnc(C)n12 [Example 184] | 1 to 10 | 0.1 to 1 |  |  | 
COC1CCCC1N(Cc1cn2ccccc2n1)C(=O)c1cc2c(cc1F)nc(N)c1cnc(C)n12 (stereo not drawn) [Example 185] | 1 to 10 | < 0.1 |  |  | 
Cc1cn2c(n1)c(N)nc1cc(F)c(C(=O)N(Cc3nc4ccccn4c3F)CC(C)C)cc12 [Example 188] | 1 to 10 | < 0.1 |  |  | 
Cc1ncc2c(N)nc3cc(F)c(C(=O)N(Cc4cn5ccccc5n4)C4CCCC4O)cc3n12 (stereo not drawn) [Example 190] | 1 to 10 | 0.1 to 1 |  |  | 
CCN(Cc1cn2ccccc2n1)C(=O)c1cc2c(cc1Cl)nc(N)c1cnc(C)n12 [Example 192] | 1 to 10 | 0.1 to 1 |  |  | 
Cc1ncc2c(N)nc3cc(F)c(C(=O)N(Cc4nc5ccccn5c4F)CC(C)C)cc3n12 [Example 194] | 1 to 10 | < 0.1 |  |  | 
Cc1ncc2c(N)nc3cc(F)c(C(=O)N(Cc4cn5cccc(C(F)(F)F)c5n4)c4cnn(C)c4)cc3n12 [Example 195] | 1 to 10 | 0.1 to 1 |  |  | 
Cc1ncc2c(N)nc3cc(F)c(C(=O)N(Cc4cn5ccccc5n4)c4cccnc4)cc3n12 [Example 199] | 1 to 10 | 0.1 to 1 |  |  | 
Cc1ncc2c(N)nc3cc(F)c(C(=O)N4C(c5cc6ccccn6n5)COC[C@H]4C)cc3n12 (stereo partly drawn) [Example 203] | 1 to 10 | < 0.1 |  |  | 
Cc1ncn2c1c(N)nc1cc(F)c(C(=O)N(Cc3nc4ccccn4c3F)c3cnn(C)c3)cc12 [Example 205] | 1 to 10 | < 0.1 |  |  | 
CCN(Cc1cn2cc(C(F)(F)F)ncc2n1)C(=O)c1cc2c(cc1F)nc(N)c1c(C)ncn12 [Example 207] | 1 to 10 | < 0.1 |  |  | 
CCN(Cc1nc2ccccn2c1F)C(=O)c1cc2c(cc1F)nc(N)c1c(C)ncn12 [Example 209] | 1 to 10 | < 0.1 |  |  | 

Second part, led by results:

IC50 (HCT116 MTAP WT cells; Homo sapiens, HCT-116, 144 h) [µM] | IC50 ([1]; HCT116-MTAP null, 144 h) [µM] | IC50 (HCT116 MTAP WT cells) [µM] | IC50 [1] [µM] | SMILES | IC50 ([1]; 144 h) [µM]
1 to 10 | < 0.1 |  |  | Cc1ncc2c(N)nc3cc(F)c(C(=O)N(Cc4nc5ccc(S(F)(F)(F)(F)F)cc5[nH]4)CC(C)C)cc3n12 [Example 139] | 
1 to 10 | 0.1 to 1 |  |  | CCN(Cc1nc2cc(C(F)(F)F)ccc2[nH]1)C(=O)c1cc2c(cc1F)nc(N)c1cnc(C)n12 [Example 140] | 
1 to 10 | 0.1 to 1 |  |  | COCC(C1CC1)N(Cc1nc2cc(C(F)(F)F)ccc2s1)C(=O)c1ccc2nc(N)c(C)cc2c1 (stereo not drawn) [Example 150] | 
1 to 10 | 0.1 to 1 |  |  | COCC(C1CC1)N(Cc1nc2cc(Br)ccc2s1)C(=O)c1ccc2nc(N)c(C)cc2c1 (stereo not drawn) [Example 151] | 
1 to 10 | 0.1 to 1 |  |  | CC(c1ncccn1)N(Cc1nc2cc(C(F)(F)F)ccc2s1)C(=O)c1ccc2nc(N)c3c(c2c1)CCC3 (stereo not drawn) [Example 153] | 
1 to 10 | 0.1 to 1 |  |  | COCC(C1CC1)N(Cc1nc2cc(C(F)(F)F)ccc2s1)C(=O)c1ccc2nc(N)c3c(c2c1)CCC3 (stereo not drawn) [Example 154] | 
1 to 10 | 0.1 to 1 |  |  | CC(c1ncccn1)N(Cc1nc2ccccn2n1)C(=O)c1ccc2nc(N)c3c(c2c1)CCC3 (stereo not drawn) [Example 155] | 
1 to 10 | 0.1 to 1 |  |  | CC(c1ncccn1)N(Cc1cc2n(n1)CCOC2)C(=O)c1ccc2nc(N)c3c(c2c1)CCC3 (stereo not drawn) [Example 156] | 
1 to 10 | 0.1 to 1 |  |  | CC(c1ncccn1)N(Cc1cn2c(n1)COCC2)C(=O)c1ccc2nc(N)c3c(c2c1)CCC3 (stereo not drawn) [Example 157] | 
1 to 10 | 0.1 to 1 |  |  | Cc1cn2c(n1)c(N)nc1cc(F)c(C(=O)N(Cc3cn4ccccc4n3)CC(C)C)cc12 [Example 158] | 
1 to 10 | 0.1 to 1 |  |  | CCN(Cc1cc2ccccn2n1)C(=O)c1ccc2nc(N)c3cnc(C)n3c2c1 [Example 159] | 
1 to 10 | 0.1 to 1 |  |  | Cc1ncc2c(N)nc3ccc(C(=O)N(Cc4nc5cnccc5s4)CC(C)C)cc3n12 [Example 160] | 
1 to 10 | 0.1 to 1 |  |  | Cc1nc(C)n2c1c(N)nc1cc(F)c(C(=O)N(Cc3cn4ccccc4n3)CC(C)C)cc12 [Example 162] | 
1 to 10 | 0.1 to 1 |  |  | CCN(C(=O)c1cc2c(cc1F)nc(N)c1cnc(C)n12)C(C)c1cn2ccccc2n1 (stereo not drawn) [Example 163] | 
0.1 to 1 | < 0.1 |  |  | COCCN(Cc1cn2ccccc2n1)C(=O)c1cc2c(cc1C)nc(N)c1cnc(C)n12 [Example 166] | 
1 to 10 | 0.1 to 1 |  |  | Cc1nc(C)n2c1c(N)nc1ccc(C(=O)N(C)C3COc4cc(-c5cnn(C(F)(F)F)c5)ccc43)cc12 (stereo not drawn) [Example 167] | 
1 to 10 | 0.1 to 1 |  |  | Cc1cn2c(n1)c(N)nc1ccc(C(=O)N3C(C)COC[C@@H]3c3cn4ccccc4n3)cc12 (stereo partly drawn) [Example 168] | 
0.1 to 1 | < 0.1 |  |  | Cc1ncc2c(N)nc3cc(F)c(C(=O)N(Cc4cn5ccccc5n4)C45CC(C4)C5)cc3n12 [Example 169] | 
0.1 to 1 | < 0.1 |  |  | Cc1cn2c(n1)c(N)nc1cc(F)c(C(=O)N3C(C)COC[C@@H]3c3cn4cc(C(F)(F)F)ccc4n3)cc12 (stereo partly drawn) [Example 170] | 
1 to 10 | 0.1 to 1 |  |  | COCCN(C(=O)c1cc2c(cc1F)nc(N)c1cnc(C)n12)C(C)c1cn2ccccc2n1 (stereo not drawn) [Example 171] | 
0.1 to 1 | < 0.1 |  |  | Cc1ncc2c(N)nc3cc(F)c(C(=O)N4C(C)COC[C@@H]4c4cn5cc(C(F)(F)F)ccc5n4)cc3n12 (stereo partly drawn) [Example 172] | 
1 to 10 | 0.1 to 1 |  |  | [2H]C([2H])([2H])N(Cc1cn2cc(C(F)(F)F)ccc2n1)C(=O)c1cc2c(cc1F)nc(N)c1cnc(C)n12 [Example 173] | 
< 0.1 | 0.1 to 1 |  |  | Cc1cn2c(n1)c(N)nc1cc(F)c(C(=O)N3C(C)COC[C@@H]3c3cn4ccccc4n3)cc12 (stereo partly drawn) [Example 174] | 
1 to 10 | 0.1 to 1 |  |  | Cc1ncc2c(N)nc3cc(F)c(C(=O)N4C(C)COC[C@@H]4c4cn5ccccc5n4)cc3n12 (stereo partly drawn) [Example 176] | 
0.1 to 1 | < 0.1 |  |  | Cc1ncc2c(N)nc3cc(F)c(C(=O)N(Cc4cn5cc(C(F)(F)C(F)(F)F)ccc5n4)CC(C)C)cc3n12 [Example 182] | 
